Values of other authors in patent US11103587B2, “Multiple oligonucleotide moieties on peptide carrier” (Genzyme Corporation, priority 2014, dated 2021).

Columns and labels:
[1] = test system: exon 23 of the mRNA encoding for dystrophin; settings: mdx mouse, cited from earlier work
[2] = mice; cited from earlier work

**Q.** For “GGCCAAACCTCGGCTTACCTGAAAT (PMO backbone, chemistry not fully specified) [PMO23, PMO designed to skip exon 23 of the mRNA encoding for dystrophin]”, which “skipping of exon 23 in cardiac muscle” value ([1]; cardiac muscle) is on record?
**A.** does not effect exon 23 skipping in cardiac muscle

**Q.** And the “skipping of exon 23 in skeletal muscle” value ([1]; skeletal muscle)?
**A.** < 15%

**Q.** And the “amount administered without any noticeable toxic effects” value [2]?
**A.** ≤ 250 mg/kg
